In patent publication US7504035B2, “Treatment of putrescrible cakes” (United Utilities PLC, priority 2005, dated 2009):

Key:
Type in all cases: cell-based
[1] = test system: E. coli; experiment: E. coli content of digested sludge cake (24.8% solids) treated with urea; conditions: digested sewage sludge 24.8% solids
Method: Samples of digested sludge cake with mean solids content of 24.8% were treated with various amounts of urea. The E. coli content (cfu/g dry weight) of the samples was monitored over a period.

[2] = test system: pathogens in the cake; experiment: Pathogen deactivation in sewage sludge cake (general statement); conditions: low concentration added to sewage sludge cake, particularly septic cake
[3] = test system: E. coli; experiment: E. coli content of raw sewage sludge cake (25.6% DS) treated with urea; conditions: raw sewage sludge 25.6% DS
Method: Samples of raw sewage sludge cake with mean solids content of 25.6% were treated with various amounts of urea. The E. coli content (cfu/g dry weight) of the samples was monitored over a period.

NC(N)=O [urea]
E. coli content ([1]; 0.5% dose urea, day 0): 4.67E+04 cfu/g dry weight | E. coli content ([1]; 0.5% dose urea, day 1): 1.86E+03 cfu/g dry weight | E. coli content ([1]; 0.5% dose urea, day 4): 1.21E+02 cfu/g dry weight | E. coli content ([1]; 0.5% dose urea, day 7): 1.94E+02 cfu/g dry weight | E. coli content ([1]; 0.5% dose urea, day 14): 3.90E+01 cfu/g dry weight | E. coli content ([1]; 0.5% dose urea, day 50): 5.40E+01 cfu/g dry weight | E. coli content ([1]; 1.0% dose urea, day 0): 1.79E+04 cfu/g dry weight | E. coli content ([1]; 1.0% dose urea, day 1): 6.97E+03 cfu/g dry weight | E. coli content ([1]; 1.0% dose urea, day 4): 7.90E+01 cfu/g dry weight | E. coli content ([1]; 1.0% dose urea, day 7): 7.90E+01 cfu/g dry weight | E. coli content ([1]; 1.0% dose urea, day 14): 1.34E+02 cfu/g dry weight | E. coli content ([1]; 1.0% dose urea, day 50): 1.85E+02 cfu/g dry weight | E. coli content ([1]; 1.5% dose urea, day 0): 1.19E+04 cfu/g dry weight | E. coli content ([1]; 1.5% dose urea, day 1): 4.57E+03 cfu/g dry weight | E. coli content ([1]; 1.5% dose urea, day 4): 3.70E+01 cfu/g dry weight | E. coli content ([1]; 1.5% dose urea, day 7): 1.54E+02 cfu/g dry weight | E. coli content ([1]; 1.5% dose urea, day 14): 7.90E+01 cfu/g dry weight | E. coli content ([1]; 1.5% dose urea, day 50): 4.10E+01 cfu/g dry weight | Pathogens in the cake [2]: quickly become deactivated | E. coli content ([3]; 0.5% dose urea, day 0): 1.36E+06 cfu/g dry weight | E. coli content ([3]; 0.5% dose urea, day 1): 7.58E+06 cfu/g dry weight | E. coli content ([3]; 0.5% dose urea, day 8): 1.32E+05 cfu/g dry weight | E. coli content ([3]; 0.5% dose urea, day 14): 1.18E+05 cfu/g dry weight | E. coli content ([3]; 0.5% dose urea, day 22): 4.55E+04 cfu/g dry weight | E. coli content ([3]; 1.0% dose urea, day 0): 1.39E+06 cfu/g dry weight | E. coli content ([3]; 1.0% dose urea, day 1): 6.15E+06 cfu/g dry weight | E. coli content ([3]; 1.0% dose urea, day 8): 3.25E+03 cfu/g dry weight | E. coli content ([3]; 1.0% dose urea, day 14): 9.58E+02 cfu/g dry weight | E. coli content ([3]; 1.0% dose urea, day 22): 3.35E+02 cfu/g dry weight | E. coli content ([3]; 1.5% dose urea, day 0): 1.23E+06 cfu/g dry weight | E. coli content ([3]; 1.5% dose urea, day 1): 1.30E+03 cfu/g dry weight | E. coli content ([3]; 1.5% dose urea, day 8): 9.03E+02 cfu/g dry weight | E. coli content ([3]; 1.5% dose urea, day 14): 2.09E+02 cfu/g dry weight | E. coli content ([3]; 1.5% dose urea, day 22): 1.00E+01 cfu/g dry weight
